Source: PubChem BioAssay AID266 (DTP/NCI, 2004)
Results filed as inconclusive are left out.

Test system: Nude mice, LX-1 lung xenograft intrarenal, tumor weight T/C
Experiment: NCI In Vivo Anticancer Drug Screen. Data for tumor model Human Lung LX-1 Xenograft (intrarenal inoculation) in NU/NU BALB/C (nude) mice
Settings: endpoint: mean tumor weight change, higher = larger tumour
Method: The antitumor activity of compounds was measured in mice bearing transplantable tumors. Survival or tumor size were measured and the results are expressed as the measurement made in the treated group (T) divided by the measurement made in the vehicle treated control group (C). The tumor model used in this assay is Human Lung LX-1 Xenograft (intrarenal inoculation) in NU/NU BALB/C (nude) mice

[1] = dose: 100.0 mg/kg/injection, schedule: Q01DX010 (sc), vehicle: Klucel (hydroxypropylcellulose) (HPC)

SMILES: CNc1nc(NC)nc(NC)n1
- T/C (dose: 25.0 mg/kg/injection, schedule: Q01DX010 (sc), vehicle: Klucel (hydroxypropylcellulose) (HPC)): 85 % of control
- T/C [1]: 107 % of control

SMILES: CC(=O)O[C@H]1C(=O)[C@@]2(C)[C@H]([C@H](OC(=O)c3ccccc3)[C@]3(O)C[C@H](OC(=O)[C@H](O)[C@@H](NC(=O)c4ccccc4)c4ccccc4)C(C)=C1C3(C)C)[C@]1(OC(C)=O)CO[C@@H]1C[C@@H]2O
- T/C (dose: 50.0 mg/kg/injection, schedule: Q01DX010 (sc), vehicle: Klucel (hydroxypropylcellulose) (HPC)): 63 % of control
- T/C [1]: 93 % of control
- T/C (dose: 200.0 mg/kg/injection, schedule: Q01DX010 (sc), vehicle: Klucel (hydroxypropylcellulose) (HPC)): 68 % of control
- T/C (dose: 400.0 mg/kg/injection, schedule: Q01DX010 (sc), vehicle: Klucel (hydroxypropylcellulose) (HPC)): 51 % of control

SMILES: CCC12C[N+]3([O-])CCc4c([nH]c5ccccc45)C(C(=O)OC)(c4cc5c(cc4OC)N(C)C4C(O)(C(=O)OC)C(OC(C)=O)C6(CC)C=CCN7CCC54C76)CC(C3)C1O2 (configuration not stated)
- T/C (dose: 40.0 mg/kg/injection, schedule: Q04DX003 (sc), vehicle: water): 64 % of control
- T/C (dose: 80.0 mg/kg/injection, schedule: Q04DX003 (sc), vehicle: water): 86 % of control
- T/C (dose: 160.0 mg/kg/injection, schedule: Q04DX003 (sc), vehicle: water): 93 % of control
- T/C (dose: 320.0 mg/kg/injection, schedule: Q04DX003 (sc), vehicle: water): 93 % of control

SMILES: CCN(CC)CCNc1ccc(C)c2sc3ccccc3c(=O)c12
- T/C (dose: 50.0 mg/kg/injection, schedule: Q01DX010 (sc), vehicle: saline): 211 % of control

SMILES: COC(=O)Nc1cn2cc(C(=O)c3cccs3)ccc2n1
- T/C (dose: 300.0 mg/kg/injection, schedule: Q04DX003 (sc), vehicle: Klucel (hydroxypropylcellulose) (HPC)): 94 % of control
- T/C (dose: 600.0 mg/kg/injection, schedule: Q04DX003 (sc), vehicle: Klucel (hydroxypropylcellulose) (HPC)): 96 % of control
- T/C (dose: 1200.0 mg/kg/injection, schedule: Q04DX003 (sc), vehicle: Klucel (hydroxypropylcellulose) (HPC)): 54 % of control
- T/C (dose: 2400.0 mg/kg/injection, schedule: Q04DX003 (sc), vehicle: Klucel (hydroxypropylcellulose) (HPC)): 99 % of control

SMILES: C[Si](C)(C)O/C=C1\CCCCC1=O
- T/C (dose: 100.0 mg/kg/injection, schedule: Q04DX003 (sc), vehicle: saline with Tween-80): 95 % of control
- T/C (dose: 200.0 mg/kg/injection, schedule: Q04DX003 (sc), vehicle: saline with Tween-80): 92 % of control

SMILES: O=CC(O)C(O)C(O)C(O)CO (configuration not stated)
- T/C (dose: 75.0 mg/kg/injection, schedule: Q04DX003 (ip), vehicle: saline): 103 % of control
- T/C (dose: 150.0 mg/kg/injection, schedule: Q04DX003 (ip), vehicle: saline): 101 % of control
- T/C (dose: 300.0 mg/kg/injection, schedule: Q04DX003 (ip), vehicle: saline): 115 % of control
- T/C (dose: 600.0 mg/kg/injection, schedule: Q04DX003 (ip), vehicle: saline): 88 % of control
- T/C (dose: 1200.0 mg/kg/injection, schedule: Q04DX003 (ip), vehicle: saline): 95 % of control
